From ChEMBL document CHEMBL5126512, “Current status of carbazole hybrids as anticancer agents” (Eur J Med Chem, 2022)

What was measured:
MCF7 [1] = experiment: Anticancer activity against human MCF7 cells assessed as cell growth inhibition measured after 24 hrs by MTT assay; type: functional, cell-based; settings: MCF7, 24 h
[2] = Cytotoxicity against human HFB4 cells assessed as cell growth inhibition measured after 24 hrs by MTT assay; type: toxicity, cell-based
[3] = molecular target: Urokinase-type plasminogen activator (Homo sapiens, UniProt P00749); experiment: Inhibition of urokinase plasminogen activator in human MCF7 cells measured after 24 hrs by ELISA method; type: cell-based
HeLa [4] = experiment: Antiproliferative activity against human HeLa cells assessed as cell growth inhibition by MTT assay; type: functional, cell-based
MDA-MB-231 [5] = experiment: Antiproliferative activity against human MDA-MB-231 cells assessed as cell growth inhibition by MTT assay; type: functional, cell-based
MCF7 [6] = experiment: Antiproliferative activity against human MCF7 cells assessed as cell growth inhibition by MTT assay; type: functional, cell-based
COLO 205 = experiment: Antiproliferative activity against human COLO 205 cells assessed as cell growth inhibition by MTT assay; type: functional, cell-based
A549 [7] = experiment: Antiproliferative activity against human A549 cells assessed as cell growth inhibition by MTT assay; type: functional, cell-based
HCT-116 [8] = experiment: Antiproliferative activity against human HCT-116 cells assessed as cell growth inhibition measured after 48 hrs by MTT assay; type: functional, cell-based; settings: HCT-116, 48 h
HT-29 = experiment: Antiproliferative activity against human HT-29 cells assessed as cell growth inhibition measured after 48 hrs by MTT assay; type: functional, cell-based; settings: HT-29, 48 h
[9] = Cytotoxicity against human A875 cells assessed as cell growth inhibition measured after 72 hrs by MTT assay; type: functional, cell-based; settings: A875, 72 h
HepG2 [10] = experiment: Cytotoxicity against human HepG2 cells assessed as cell growth inhibition measured after 72 hrs by MTT assay; type: functional, cell-based; settings: HepG2, 72 h
[11] = Cytotoxicity against green monkey MARC145 cells assessed as cell growth inhibition measured after 72 hrs by MTT assay; type: toxicity, cell-based, Chlorocebus aethiops
HeLa [12] = experiment: Cytotoxicity against human HeLa cells assessed as cell growth inhibition by MTT assay; type: functional, cell-based
MCF7 [13] = experiment: Cytotoxicity against human MCF7 cells assessed as cell growth inhibition by MTT assay; type: functional, cell-based
HEp-2 = experiment: Cytotoxicity against human HEp-2 cells assessed as cell growth inhibition by MTT assay; type: functional, cell-based
MCF7 [14] = experiment: Antiproliferative activity against human MCF7 cells assessed as cell growth inhibition measured after 48 hrs by SRB assay; type: functional, cell-based; settings: MCF7, time 48 hrs
MDA-MB-231 [15] = experiment: Antiproliferative activity against human MDA-MB-231 cells assessed as cell growth inhibition measured after 48 hrs by SRB assay; type: functional, cell-based; settings: MDA-MB-231, time 48 hrs
ASPC1 = experiment: Anticancer activity against human ASPC1 cells assessed as cell growth inhibition measured after 72 hrs by Cell-Titre Glo luminescent cell viability assay; type: functional, cell-based; settings: ASPC1, 72 h
SW1990 = experiment: Anticancer activity against human SW1990 cells assessed as cell growth inhibition measured after 72 hrs by Cell-Titre Glo luminescent cell viability assay; type: functional, cell-based; settings: SW1990, 72 h
K562 = experiment: Antiproliferative activity against human K562 cells assessed as cell growth inhibition by MTT assay; type: functional, cell-based
HCT-116 [16] = experiment: Antiproliferative activity against human HCT-116 cells assessed as cell growth inhibition by MTT assay; type: functional, cell-based
SK-OV-3 = experiment: Antiproliferative activity against human SK-OV-3 cells assessed as cell growth inhibition by MTT assay; type: functional, cell-based
HCT-116 [17] = experiment: Cytotoxicity against human HCT-116 cells assessed as cell growth inhibition measured after 48 hrs by MTT assay; type: functional, cell-based; settings: HCT-116, 48 h
HepG2 [18] = experiment: Cytotoxicity against human HepG2 cells assessed as cell growth inhibition measured after 48 hrs by MTT assay; type: functional, cell-based; settings: HepG2, 48 h
MCF7 [19] = experiment: Cytotoxicity against human MCF7 cells assessed as cell growth inhibition measured after 48 hrs by MTT assay; type: functional, cell-based; settings: MCF7, 48 h
[20] = Cytotoxicity against human RPE-1 cells assessed as cell growth inhibition measured after 48 hrs by MTT assay; type: toxicity, cell-based; settings: RPE-1 (TERT-RPE1) cells
MCF7 [21] = experiment: Cytotoxicity against human MCF7 cells assessed as cell growth inhibition measured after 72 hrs by MTT assay; type: functional, cell-based; settings: MCF7, 72 h
MDA-MB-231 [22] = experiment: Cytotoxicity against human MDA-MB-231 cells assessed as cell growth inhibition measured after 72 hrs by MTT assay; type: functional, cell-based; settings: MDA-MB-231, 72 h
A498 = experiment: Antiproliferative activity against human A498 cells assessed as cell growth inhibition measured after 72 hrs by SRB assay; type: functional, cell-based; settings: A498, 72 h
A549 [23] = experiment: Antiproliferative activity against human A549 cells assessed as cell growth inhibition measured after 72 hrs by SRB assay; type: functional, cell-based; settings: A549, 72 h
HeLa [24] = experiment: Cytotoxicity against human HeLa cells assessed as cell growth inhibition measured after 72 hrs by MTT assay; type: functional, cell-based; settings: pooled result: one value given for 3 cell lines, strains, targets or settings
A549 [25] = experiment: Cytotoxicity against human A549 cells assessed as cell growth inhibition measured after 24 hrs by MTT assay; type: functional, cell-based; settings: A549, 24 h, pooled result: one value given for 4 cell lines, strains, targets or settings

## c1cncc(C2c3[nH]c4ccccc4c3C(c3cccnc3)c3[nH]c4ccccc4c32)c1 (stereo unspecified)
MCF7 [1]
  IC50: 4 µM
[2]
  IC50 at 24 h: 80 µM
[3]
  IC50: 2.7 µM

## Oc1c(C(c2ccc(Br)cc2)N2CCCC2)ccc2[nH]c3ccccc3c12 (stereo unspecified)
HeLa [4]
  IC50: 5.4 µM
MDA-MB-231 [5]
  IC50: 5.4 µM

## COc1ccc2[nH]c3c(C)cc(-c4cc(-c5ccc(F)cc5)nc(N)n4)c(C)c3c2c1
MCF7 [6]
  IC50: 0.1 µM
COLO 205
  IC50: 0.1 µM
A549 [7]
  IC50: 0.1 µM

## COc1ccc2c(c1)[nH]c1cc(O)c(CN3CCCCC3)cc12
HCT-116 [8]
  IC50: 18 µM
HT-29
  IC50: 18 µM

## Cc1c(C(=O)NCCc2c[nH]c3ccccc23)ccc2c3ccccc3n(C)c12
[9]
  IC50: > 53.8 µM
HepG2 [10]
  IC50: > 53.8 µM
[11]
  IC50 at 72 h: > 53.8 µM

## O=C1c2ccsc2N=C2c3[nH]c4ccc(Br)cc4c3CCC12 (stereo unspecified)
HeLa [12]
  IC50: 5.75 µM
MCF7 [13]
  IC50: 5.75 µM
HEp-2
  IC50: 5.75 µM

## O=C(Cn1c2ccccc2c2ccccc21)NNC(c1ccc([N+](=O)[O-])cc1)N1CCNCC1 (stereo unspecified)
MCF7 [14]
  GI50: < 10 µM
MDA-MB-231 [15]
  GI50: < 10 µM

## CCCCCCn1c2ccccc2c2cc(/C=N/NC(=O)c3ccncc3)ccc21
ASPC1
  IC50: 3.42 µM
SW1990
  IC50: 3.42 µM

## COc1ccc2[nH]c3c(C)cc(-c4cc(-c5ccc(C(F)(F)F)cc5)nc(N)n4)c(C)c3c2c1
MCF7 [6]
  IC50: 0.1 µM
COLO 205
  IC50: 0.1 µM
A549 [7]
  IC50: 0.1 µM

## O=Cc1c[nH]c2c1ccc1c3ccccc3n(CCCC(=O)NCCn3ccn4c5ccc(C(F)(F)F)cc5cc34)c12
K562
  IC50: 9 µM
HCT-116 [16]
  IC50: 9 µM
MCF7 [6]
  IC50: 9 µM
MDA-MB-231 [5]
  IC50: 9 µM
SK-OV-3
  IC50: 9 µM

## COc1ccc(C(NNC(=O)Cn2c3ccccc3c3ccccc32)N2CCNCC2)cc1 (stereo unspecified)
MCF7 [14]
  GI50: < 10 µM
MDA-MB-231 [15]
  GI50: < 10 µM

## O=Cc1c[nH]c2c1ccc1c3ccccc3n(CCCC(=O)NCCn3ccn4c5ccccc5cc34)c12
K562
  IC50: 9 µM
HCT-116 [16]
  IC50: 9 µM
MCF7 [6]
  IC50: 9 µM
MDA-MB-231 [5]
  IC50: 9 µM
SK-OV-3
  IC50: 9 µM

## CCn1c2ccccc2c2cc(NC(=O)c3c(N)n[nH]c3Nc3ccc(Cl)cc3)ccc21
HCT-116 [17]
  IC50: 2.97 µM
HepG2 [18]
  IC50: 2.97 µM
MCF7 [19]
  IC50: 2.97 µM
[20]
  IC50 at 48 h: > 100 µM

## O=C1c2ccsc2N=C2c3[nH]c4ccc(Cl)cc4c3CCC12 (stereo unspecified)
HeLa [12]
  IC50: 3.6 µM
MCF7 [13]
  IC50: 3.6 µM
HEp-2
  IC50: 3.6 µM

## Cc1c(C(=O)N/N=C/c2c[nH]c3ccccc23)ccc2c1[nH]c1ccccc12
HepG2 [10]
  IC50: > 13.3 µM

## Cc1c(C(=O)NCCc2c[nH]c3ccccc23)ccc2c1[nH]c1ccccc12
[9]
  IC50: 20 µM
HepG2 [10]
  IC50: 20 µM
[11]
  IC50 at 72 h: 20 µM

## Cc1c2ccncc2c(C)c2c1[nH]c1ccccc12 [ELLIPTECINE]
MCF7 [21]
  IC50: 1.05 µM
MDA-MB-231 [22]
  IC50: 1.05 µM
HepG2 [10]
  IC50: 1.05 µM
A498
  IC50: 1.74 µM
A549 [23]
  IC50: 0.85 µM
HeLa [24]
  IC50: 1.05 µM
HeLa [12]
  IC50: 9.85 µM
MCF7 [13]
  IC50: 9.85 µM
HEp-2
  IC50: 9.85 µM

## COc1cc([C@@H]2c3cc4c(cc3[C@@H](O[C@@H]3O[C@@H]5CO[C@@H](C)O[C@H]5[C@H](O)[C@H]3O)[C@H]3COC(=O)[C@H]23)OCO4)cc(OC)c1O [ETOPOSIDE]
A549 [25]
  IC50: 1.97 µM

## O=c1[nH]cc(F)c(=O)[nH]1 [FLUOROURACIL]
[9]
  IC50: 72.3 µM
HepG2 [10]
  IC50: 72.3 µM
[11]
  IC50 at 72 h: 72.3 µM

## Nc1ccn([C@@H]2O[C@H](CO)[C@@H](O)C2(F)F)c(=O)n1 [GEMCITABINE]
ASPC1
  IC50: 35.1 µM
SW1990
  IC50: 40.2 µM
